This note sets out measurements from patent US20130079309A1, “Method Of Treating Acute Lung Injury Using Sphingosine 1 Phosphate Analogs Or Sphingosine 1 Phosphate Receptor Agonists” (The Board of Trustees of the University of Illinois, priority 2010, published 2013).

Test [1] deals with HPAEC. Nature of the test: Transendothelial electrical resistance (TER) of HPAEC. The class given is cell-based, human. The settings on record: for maximal percentage TER change compared with S1P and FTY720 / maximal TER change: within 60 min; for maximal TER change: 10 μM. Here is the method: Cells were grown at 37° C. in a 5% CO2 incubator, and passages 6 to 9 were used for experiments. Media were changed 1 day before experimentation.

Test [2] deals with ERK. The test can be described thus: Western blotting of HPAEC lysates for phospho-ERK. The class given is cell-based, human. As to conditions: 5 min. Here is the method:
(§1) After treatment as outlined for individual experiments, confluent HPAEC were lysed for Western blotting with phospho-MLC, pan-MLC, phospho-ERK, or pan-ERK antibodies. […] Membranes were then immunoblotted with primary antibodies (1:500-1000, 4° C., overnight) followed by secondary antibodies conjugated to horseradish peroxidase (1:5000, room temperature, 30 min) and detected with enhanced chemiluminescence (Pierce ECL or SuperSignal West Dura; Pierce Biotechnology, Rockford, Ill.) on Biomax MR film (Carestream Health, Rochester, N.Y.).

Test [3] deals with β-arrestin. The settings on record: 1 μM (SEW2871 10 μM; (S)-FTY720-phosphonate 1, 10, 50 μM), 5 h.
Procedure: After another 2 h-incubation with fluorescence substrate, the fluorescence intensity (blue and green channels) were detected and the blue/green emission ratio was used as the activation indicator.
Test [4] relates to HPAEC. Nature of the test: Pharmacologic inhibitor effects on barrier enhancement (TER). As to conditions: 1 μM agonist, 60 min; for % Inhibition of Maximal TER Response (of Agonist-Only Control), PTX: 2-h preincubation 100 ng/ml PTX; for % Inhibition of Maximal TER Response (of Agonist-Only Control), MβCD: 2-h preincubation 2 mM MβCD; for % Inhibition of Maximal TER Response (of Agonist-Only Control), Gen: 30-min preincubation 200 μM genistein.
Procedure: Endothelial cells were grown to confluence in polycarbonate wells containing evaporated gold microelectrodes (surface area, 10^−3 cm^2) in series with a large gold counter electrode (1 cm^2) connected to a phase-sensitive lock-in amplifier. Current was applied across the electrodes by a 4,000-Hz AC voltage source with amplitude of 1 V in series with a 1 MΩ resistance to approximate a constant current source (˜1 μA). The in-phase and out-of-phase voltages between the electrodes were monitored in real time with the lock-in amplifier and subsequently converted to scalar measurements of transendothelial impedance, of which resistance was the primary focus. TER was monitored for 30 minutes to establish a baseline resistance (R0) which, for bovine pulmonary endothelium, was typically between 8 to 12×10^3Ω (wells with R0<7×10^3Ω were rejected). As cells adhere and spread out on the microelectrode, TER increases (maximal at confluence), whereas cell retraction, rounding, or loss of adhesion is reflected by a decrease in TER. These measurements provide a highly sensitive biophysical assay that indicates the state of cell shape and focal adhesion. Values from each microelectrode were pooled at discrete time points and plotted versus time as the mean±SE of the mean. TER values from each microelectrode were pooled as discrete time points and plotted versus time as the mean±S.E.M.
In this experiment, confluent HPAEC were plated on gold microelectrodes and then stimulated with 1 μM S1P, FTY720, 1R, 1S, 2R, or 2S after either a 2-h preincubation with 100 ng/ml PTX, 30-min preincubation with 200 μM genistein (Gen), or 2-h preincubation with 2 mM MβCD or their respective vehicle controls. Data were pooled from multiple TER experiments (4-10 independent experiments per condition) and expressed as percentage inhibition of maximal barrier enhancement at 60 min relative to agonist-only control.

Test [5] deals with T1, S1P receptor 1 (S1PR1) (Homo sapiens, UniProt P21453). The test can be described thus: Ubiquitination of S1PR1 in HPAEC (immunoprecipitation, ubiquitin Ab). As to conditions: for ubiquitination of S1PR1 at 2 h: 1 μM (SEW2871 10 μM).
T1 sequence (P21453 whole entry): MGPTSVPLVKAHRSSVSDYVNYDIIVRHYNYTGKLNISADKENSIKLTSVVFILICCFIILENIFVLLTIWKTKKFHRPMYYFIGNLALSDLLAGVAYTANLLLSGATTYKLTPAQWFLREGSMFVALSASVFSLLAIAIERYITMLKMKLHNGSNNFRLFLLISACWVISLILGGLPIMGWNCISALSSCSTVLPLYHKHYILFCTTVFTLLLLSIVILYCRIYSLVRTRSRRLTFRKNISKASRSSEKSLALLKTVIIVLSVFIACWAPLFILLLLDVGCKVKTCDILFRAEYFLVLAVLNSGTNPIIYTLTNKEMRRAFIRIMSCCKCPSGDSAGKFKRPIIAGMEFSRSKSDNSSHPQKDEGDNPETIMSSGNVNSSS
Source text: S1PR1 was immunoprecipitated by S1PR1Ab, and ubiquitination of S1PR1 was detected by ubiquitin Ab.
The target of test [6] is T1, S1P receptor 1 (S1PR1). The test can be described thus: S1PR1 protein expression in HPAEC by Western blot. Details: Cells were collected and S1PR1 expression level was detected by Western blot; endogenous in cells; host or cells: HPAEC (human pulmonary artery endothelial cells). Type of test: cell-based. The settings on record: for S1PR1 expression level compared to control: 1 μM (SEW2871 10 μM), 4 h. The source says:
Cells were collected and S1PR1 expression level was detected by Western blot.

The test system of test [7] is HPAEC. Nature of the test: Transwell transendothelial permeability assay (FITC-dextran). The class given is cell-based, human. The settings on record: 1 μM (3R, 3S 25 μM), 1 h before FITC-dextran, 2-h incubation.
Procedure: As a complementary approach to further characterize the barrier-protective effects of these FTY720 analogs in vitro, the permeability of FITC-labeled dextran across the pulmonary EC monolayer was assayed in response to treatment by the FTY720 analogs. […] Data were normalized to unstimulated control. n=3 independent experiments per condition; *, p<0.01 versus unstimulated condition (see FIG. 26).
Test [8] concerns MLC. Nature of the test: Western blotting of HPAEC lysates for phospho-MLC. The class given is cell-based, human. As to conditions: 5 min. The protocol:
as §1

Test [9] relates to radiation-induced lung injury (RILI) in C57BL/6 mice. Nature of the test: Murine model of RILI: BAL protein, BAL cell counts, BAL cytokines, EBD extravasation, body weight, lung histology. As to conditions: 6 weeks. Type of test: in vivo, mouse. The protocol: Eight to 10-week-old C57BL/6J mice (Jackson Labs, Bar Harbor, Me.) were used for all studies in accordance with the University of Chicago Institutional Animal Care & Use Committee guidelines.
At the termination of each experiment, animals were euthanized by exsanguination under anesthesia in accordance with institutional guidelines. Both lungs were lavaged with 1.0 mL of Hank's buffered saline solution with the fluid allowed to equilibrate for 10 s before withdrawing. The pulmonary vasculature was perfused clear via the pulmonary artery with sterile phosphate-buffered saline (PBS). Both lungs were excised, weighed, and snap-frozen in liquid nitrogen for subsequent analysis. The BAL fluid collected was centrifuged at 500×g for 20 min at 4° C., and the supernatant was removed and recentrifuged at 12,000×g before snap-freezing. Cell pellets were resuspended in 0.5 mL of red blood cell lysis buffer (ACK Lysing Buffer; BioSource International, Camarillo, Calif.) for 20 min and then repelleted by centrifugation at 2500 rpm for 20 min at 4° C. The supernatant was decanted, and the cell pellet was resuspended in 0.2 mL of PBS for cellular analysis using a standard hemacytometer technique. A total of 300 BAL cells per slide were counted for cell differentials using a Diff-Quick-stained kit (Baxter Diagnostics, McGaw Park, Ill.). BAL protein concentrations were determined by a colorimetric BCA assay. Albumin concentrations in the BAL at 1:1000 and 1:100 dilutions, respectively, were quantitated by ELISA (Bethyl Labs, Montgomery, Tex.). To measure cytokines and chemokines, the BAL fluid was assayed with a Bioplex mouse cytokine kit (Bio-Rad, Hercules, Calif.) in accordance with the manufacturer's instructions.
All other chemicals were analytical or cell-culture grade and were obtained from various commercial sources. Evans Blue dye conjugated to albumin (EBA) was prepared by dissolving EBD to a concentration of 0.5% (5 mg/mL or 5.2 mM) in phosphate-buffered saline (PBS) (Ca^2+-Mg^2+ free; Invitrogen Corporation, Carlsbad, Calif.). To this solution, BSA was added to a final concentration of 4% (40 mg/mL or 0.6 mM), mixed well by stirring with a magnetic bar, allowed to stand for 30 min, and then sterile-filtered through a 0.22-μm syringe filter. The conjugate was stored in small aliquots at −80° C. To prevent cross-contamination, each aliquot was used only once in one animal and then discarded. 4, 6, 8, or 12 weeks after irradiation, the animals were injected with EBA via the jugular vein. At the end of exposure, the pulmonary circulation was flushed and lungs were harvested. Formamide extracts of lungs were prepared, with the initial modification that the homogenates were centrifuged at 12,000×g. Centrifugation at this relative centrifugal force (RCF) produced a compact pellet that allowed accurate measurement of the recovered volumes. Accurate estimation of such volumes is critical for calculating the final tissue dilution factor. Lungs, kidneys, and hearts from mice that were not injected with EBA were similarly extracted, to calculate the tissue-specific correction factors. […] Linear regression equations between absorbance at 740 nm (X) and 620 nm (Y) in tissue extracts of animals untreated with EBA were considered to be the tissue-specific correction factors. […] The EB concentration read in mg/mL was converted to μg/g wet weight of lungs using the dilution factor of the original homogenate as described above.
Eight to 10-week-old C57BL/6J mice (Jackson Labs, Bar Harbor, Me.) were used for all studies in accordance with the University of Chicago Institutional Animal Care & Use Committee guidelines. […] (FIG. 4A). Bronchoalveolar lavage (BAL) was performed as described above. BAL protein concentrations were determined by a colorimetric BCA assay. Albumin concentrations in the BAL at 1:1000 and 1:100 dilutions, respectively, were quantitated by ELISA (Bethyl Labs, Montgomery, Tex.).

In test [10] the test system is lung vascular leakage in RILI mice. The test can be described thus: ViSen FMT lung imaging of intravascular probe extravasation in RILI mice. The settings on record: 0.1 mg/kg, 25 Gy, 6 weeks. Type of test: in vivo, mouse. The protocol:
Lung imaging studies were also performed with assessment of RILI-induced extravasation of an intravascular probe.
To assess microvascular changes associated with RILI in real-time, mice were imaged with ViSen FMT 1500 Quantitative Tomography In Vivo Imaging System. Intergisens^750 NIR (ViSen Medicals, Bedford, Mass.) was used as a probe, which targets the vasculature as a selective non-peptide small molecule integrin αvβ3 antagonist and a near-infrared fluorochrome. Mice were injected with probe ([…], IV) at 6 weeks post radiation and imaged 24 hrs later. Probe intensity was quantified using TrueQuant 3D software (VisSen Medicals).

Where [11] appears, read: 0.01 or 0.1 mg/kg i.p. 2×/wk from 1 wk before irradiation (20 Gy).

Residues, ends and D or L forms follow the SMILES beside them. *: point of attachment. Cbz = O=C(OCc1ccccc1)*

On to `CCCCCCCCc1ccc(CC[C@](N)(CO)CCP(=O)(O)O)cc1` [1R, (R)-3-amino-3-(hydroxymethyl)-5-(4-octylphenyl)pentylphosphonic acid], for which the “maximal percentage TER change compared with S1P and FTY720” value in test [1] (1 μM) is on record as “greater maximal percentage TER change”. In addition, the “maximal TER change” value in test [1] is given as “even greater maximal TER elevation”. In test [2], the ERK phosphorylation entry was “increased phosphorylation of ERK”. Moreover, in [3], the “activation of β-arrestin (blue/green emission ratio)” value is recorded as “strongly activated”. Further, in test [4], the “% Inhibition of Maximal TER Response (of Agonist-Only Control), PTX” value (“% Inhibition of Maximal TER Response … PTX” below) was 79.2 (±5.9) %; the “% Inhibition of Maximal TER Response (of Agonist-Only Control), MβCD” value (“% Inhibition of Maximal TER Response … MβCD” below) is on record as 67.0 (±19.7) %; the “% Inhibition of Maximal TER Response (of Agonist-Only Control), Gen” value (“% Inhibition of Maximal TER Response … Gen” for short) was 54.3 (±14.7) %. For the same compound, the “ubiquitination of S1PR1 at 2 h” value in test [5] is reported as “significant ubiquitination”. Also, in test [5] (1 μM, 1 h), the “ubiquitination of S1PR1 at 1 h” value is “only slight ubiquitination”. In addition, the “S1PR1 expression level compared to control” value in test [6] was 47.2%. The “S1PR1 expression, agonist without MG132” value in test [6] (1 μM, 4 h (FIG. 18)) is on record as 66.3%. In test [6] (MG132 10 μM 2 h, then 1 μM agonist 4 h), the “S1PR1 expression, agonist after MG132 pretreatment” value worked out at 94.2%.
For `CCCCCCCCc1ccc(CC[C@@](N)(C=CP(=O)(O)O)CO)cc1` [2R, (R)-3-amino-3-(hydroxymethyl)-5-(4-octylphenyl)pent-1-enylphosphonic acid], the “maximal percentage TER change compared with S1P and FTY720” value in [1] (1 μM) is “greater maximal percentage TER change”. Further, the “maximal TER change” value in test [1] was “even greater maximal TER elevation”. In addition, the ERK phosphorylation entry in [2] is on record as “increased phosphorylation of ERK”. In test [4], the “% Inhibition of Maximal TER Response … PTX” value is 88.1 (±7.8) %; the “% Inhibition of Maximal TER Response … MβCD” value was 87.4 (±5.4) %; the “% Inhibition of Maximal TER Response … Gen” value is on record as 41.1 (±12.2) %.
Take `CCCCCCCCc1ccc(CC[C@](N)(C=CP(=O)(O)O)CO)cc1` [2S, (S)-3-amino-3-(hydroxymethyl)-5-(4-octylphenyl)pent-1-enylphosphonic acid]: the “maximal TER change” value in test [1] is on record as “somewhat barrier-disruptive”. Further, in test [2], the ERK phosphorylation entry was “failed to induce phosphorylation”. Further, in [4], the “% Inhibition of Maximal TER Response … PTX” value is listed as 76.3 (±12.0) %; the “% Inhibition of Maximal TER Response … MβCD” value was 95.2 (±1.0) %; the “% Inhibition of Maximal TER Response … Gen” value was 91.6 (±2.4) %.
For `CCCCCCCCc1ccc(CCC(O)(CN)CCO)cc1` (centres unmarked) [3R, 3-(aminomethyl)-5-(4-octylphenyl)pentane-1,3-diol], the “TER response (tracing)” value in test [1] (1 μM) is reported as “barrier-disruptive”. Further, the “EC permeability to FITC-dextran vs control EC” value in test [7] is listed as “increase EC permeability”. In addition, the MLC phosphorylation result in test [8] is on record as “did not increase ERK or MLC phosphorylation”. In addition, the ERK phosphorylation entry in test [2] is given as “did not increase ERK or MLC phosphorylation”.
In the case of `CC(C)C[C@@H](C=O)NC(=O)[C@H](CC(C)C)NC(=O)[C@H](CC(C)C)NC(=O)OCc1ccccc1` [MG132, reference compound] (Cbz-Leu-Leu-Leu-aldehyde), the “S1PR1 expression, MG132 alone” value in [6] (10 μM) is on record as “did not affect the expression of S1PR1”.
For `FC(F)(F)c1cccc(-c2noc(-c3cc(-c4ccccc4)c(C(F)(F)F)s3)n2)c1` [SEW2871, 5-[4-phenyl-5-(trifluoromethyl)-2-thienyl]-3-[3-(trifluoromethyl)phenyl]-1,2,4-oxadiazole], the “lung histology: inflammatory cell infiltration and interstitial edema induced by radiation” value in [9] (0.1 mg/kg i.p. 2×/wk, 25 Gy) is “to a lesser extent”. In test [9] (setting [11]), the “BAL cell counts vs RILI-challenged controls” value is “dose-dependent protective effect” and the “BAL protein vs RILI-challenged controls” value is given as “dose-dependent protective effect”. In test [10], the “radiation-induced probe extravasation (probe intensity), FMT imaging” value is on record as “significant decreases”. The “activation of β-arrestin (blue/green emission ratio)” value in test [3] was “strongly activated”. In addition, the “ubiquitination of S1PR1 at 2 h” value in test [5] is reported as “significant ubiquitination”. Further, the “S1PR1 expression level compared to control” value in test [6] amounted to 30.3%.
